The source of these data is paper PMC3280214, “Structure Based Discovery of Small Molecules to Regulate the Activity of Human Insulin Degrading Enzyme” (PLoS ONE, 2012).

The experiment concerns the target T1, mutant IDE (Gln363Ala) (Homo sapiens, UniProt P14735, Q363A).
T1 construct: made in house; host or cells: E. coli (BL21 inferred, as for the wild type)
T1 sequence (P14735 1-1019 Q363A): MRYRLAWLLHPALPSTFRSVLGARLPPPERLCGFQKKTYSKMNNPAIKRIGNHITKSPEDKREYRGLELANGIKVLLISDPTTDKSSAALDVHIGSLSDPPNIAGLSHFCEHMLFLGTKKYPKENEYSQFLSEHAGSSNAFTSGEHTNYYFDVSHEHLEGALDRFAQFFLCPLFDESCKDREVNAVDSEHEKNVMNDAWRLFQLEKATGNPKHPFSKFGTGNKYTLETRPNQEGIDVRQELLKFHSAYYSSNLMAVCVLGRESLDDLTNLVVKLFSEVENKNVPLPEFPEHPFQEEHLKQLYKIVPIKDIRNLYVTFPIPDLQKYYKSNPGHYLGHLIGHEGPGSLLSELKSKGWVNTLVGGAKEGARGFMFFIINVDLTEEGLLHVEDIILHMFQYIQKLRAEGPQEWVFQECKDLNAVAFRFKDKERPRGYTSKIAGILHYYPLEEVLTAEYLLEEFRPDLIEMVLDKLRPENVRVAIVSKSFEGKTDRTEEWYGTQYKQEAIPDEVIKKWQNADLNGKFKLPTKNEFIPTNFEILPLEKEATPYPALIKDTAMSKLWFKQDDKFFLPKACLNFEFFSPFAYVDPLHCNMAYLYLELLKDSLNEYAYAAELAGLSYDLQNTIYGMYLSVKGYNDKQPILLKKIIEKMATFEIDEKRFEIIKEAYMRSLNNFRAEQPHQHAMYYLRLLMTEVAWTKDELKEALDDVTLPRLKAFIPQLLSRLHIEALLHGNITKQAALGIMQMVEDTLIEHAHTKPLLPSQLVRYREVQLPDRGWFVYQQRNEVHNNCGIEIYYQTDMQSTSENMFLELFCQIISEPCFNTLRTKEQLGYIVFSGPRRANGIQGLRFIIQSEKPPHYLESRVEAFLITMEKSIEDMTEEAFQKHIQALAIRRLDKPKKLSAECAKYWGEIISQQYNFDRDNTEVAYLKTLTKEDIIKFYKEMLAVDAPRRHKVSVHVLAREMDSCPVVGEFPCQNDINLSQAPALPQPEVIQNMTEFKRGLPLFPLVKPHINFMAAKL
The experiment in a line: FITC-insulin-mAb degradation by mutant IDE (Gln363Ala). It counts as biochemical. Particulars: Gln363Ala vs wild type IDE; 20 µM D10. The source says: Since D10 has been found as the strongest activator of IDE towards the proteolysis of insulin, we analyzed the binding site of the compound D10 for the further analysis. According to the computational results, D10 binds to Gln363 at the IDE exosite and His332 (Fig. 1D). We carried out site-directed mutagenesis by replacing these amino acids into Ala in order to verify that D10 indeed binds to this region via these amino acids. We first mutated Gln363 to Ala and then expressed and purified mutant protein through nickel resin. The effect of D10 on the proteolytic activity of mutant IDE (Gln363Ala) was measured towards FITC-insulin-mAb degradation. […] The activation was about 49-fold in the presence of D10 with wild type IDE (Fig. 2B). Although mutant IDE activity was less responsive to D10 compound compared to wild type IDE, it appeared as if D10 were interacting with IDE through […] and could enhance the activity of mutant IDE. […]
The utility of these novel compounds were tested on degradation of insulin by IDE. […] The proteolysis of insulin by IDE was monitored by measuring the changes in fluorescence, where the reaction was carried out with 100 nM of FITC- insulin-mAb and IDE (80 ng) in 100 µl KH2PO4 buffer at a pH of 7.3. […] The increase in fluorescence was monitored by using Fluoroskan Ascent FL microplate reader (Thermo).

SMILES strings stand for the structures.

In the case of `Cc1nn(-c2ccccc2)c2nc(-c3cccc([N+](=O)[O-])c3)n3c4ccccc4nc3c2c1=O` [Compound D10], the “reduction of compound-enhanced activation with mutant IDE” value worked out at 10 fold.
